Like-named read-outs stand apart in the source and are kept apart here.
How the values were obtained:
[1] = target: AEA-DA lipid probe targets in Neuro2a cells (Mus musculus, UniProt O88545)
[2] = target: T1, AEA-DA lipid probe targets in Neuro2a cells (Mus musculus, UniProt P04223)
T1 sequence (P04223 22-369): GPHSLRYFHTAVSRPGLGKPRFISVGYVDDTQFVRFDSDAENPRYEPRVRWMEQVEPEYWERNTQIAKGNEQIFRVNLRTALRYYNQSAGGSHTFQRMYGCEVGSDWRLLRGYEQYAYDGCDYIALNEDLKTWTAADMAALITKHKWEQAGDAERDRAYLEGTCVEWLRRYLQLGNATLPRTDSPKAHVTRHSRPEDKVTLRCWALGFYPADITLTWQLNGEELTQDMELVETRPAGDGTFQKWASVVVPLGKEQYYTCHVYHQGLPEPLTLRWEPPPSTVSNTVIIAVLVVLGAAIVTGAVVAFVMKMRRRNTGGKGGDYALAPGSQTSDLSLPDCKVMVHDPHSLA

[3] = target: AEA-DA lipid probe targets in Neuro2a cells (Mus musculus, UniProt Q8BVU5); settings: protein Nudt9, Neuro2a cells
AEA-DA lipid probe targets in Neuro2a cells (Mus musculus, UniProt Q8BVU5), sequence (Q8BVU5 47-350): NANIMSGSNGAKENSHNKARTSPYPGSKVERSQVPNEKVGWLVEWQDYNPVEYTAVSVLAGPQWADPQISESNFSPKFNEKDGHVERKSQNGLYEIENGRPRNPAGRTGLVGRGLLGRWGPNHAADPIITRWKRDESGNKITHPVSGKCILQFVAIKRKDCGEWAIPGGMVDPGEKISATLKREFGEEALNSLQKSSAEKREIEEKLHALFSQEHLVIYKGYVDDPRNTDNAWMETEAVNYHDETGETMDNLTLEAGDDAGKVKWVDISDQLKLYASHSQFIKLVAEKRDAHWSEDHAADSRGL

[4] = target: T2, AEA-DA lipid probe targets in Neuro2a cells (Mus musculus, UniProt Q8C0K5)
T2 sequence (Q8C0K5 1-332): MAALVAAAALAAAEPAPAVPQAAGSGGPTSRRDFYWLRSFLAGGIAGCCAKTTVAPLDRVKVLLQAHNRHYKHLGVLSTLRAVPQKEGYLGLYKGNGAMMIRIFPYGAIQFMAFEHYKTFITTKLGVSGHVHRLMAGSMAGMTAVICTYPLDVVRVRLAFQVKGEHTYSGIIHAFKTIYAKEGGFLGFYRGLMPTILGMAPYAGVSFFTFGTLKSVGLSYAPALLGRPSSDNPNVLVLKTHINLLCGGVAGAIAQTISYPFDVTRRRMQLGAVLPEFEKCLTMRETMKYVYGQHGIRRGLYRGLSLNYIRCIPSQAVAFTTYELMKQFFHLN

[5] = target: AEA-DA lipid probe targets in Neuro2a cells (Mus musculus, UniProt Q91VM5); settings: protein Rbmxl1, Neuro2a cells
AEA-DA lipid probe targets in Neuro2a cells (Mus musculus, UniProt Q91VM5), sequence (Q91VM5 whole entry): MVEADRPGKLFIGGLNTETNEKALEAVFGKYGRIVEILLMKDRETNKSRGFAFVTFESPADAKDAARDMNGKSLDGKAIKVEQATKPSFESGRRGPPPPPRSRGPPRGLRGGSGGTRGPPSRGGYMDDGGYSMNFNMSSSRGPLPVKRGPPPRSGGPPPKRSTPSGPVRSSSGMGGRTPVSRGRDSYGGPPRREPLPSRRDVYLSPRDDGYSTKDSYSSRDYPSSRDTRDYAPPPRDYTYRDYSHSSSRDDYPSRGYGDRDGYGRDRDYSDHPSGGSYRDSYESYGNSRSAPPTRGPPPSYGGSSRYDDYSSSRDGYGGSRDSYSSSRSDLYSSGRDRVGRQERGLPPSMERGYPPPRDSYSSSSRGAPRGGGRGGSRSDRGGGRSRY

[6] = target: T3, AEA-DA lipid probe targets in Neuro2a cells (Mus musculus, UniProt Q921T2)
T3 sequence (Q921T2 1-595): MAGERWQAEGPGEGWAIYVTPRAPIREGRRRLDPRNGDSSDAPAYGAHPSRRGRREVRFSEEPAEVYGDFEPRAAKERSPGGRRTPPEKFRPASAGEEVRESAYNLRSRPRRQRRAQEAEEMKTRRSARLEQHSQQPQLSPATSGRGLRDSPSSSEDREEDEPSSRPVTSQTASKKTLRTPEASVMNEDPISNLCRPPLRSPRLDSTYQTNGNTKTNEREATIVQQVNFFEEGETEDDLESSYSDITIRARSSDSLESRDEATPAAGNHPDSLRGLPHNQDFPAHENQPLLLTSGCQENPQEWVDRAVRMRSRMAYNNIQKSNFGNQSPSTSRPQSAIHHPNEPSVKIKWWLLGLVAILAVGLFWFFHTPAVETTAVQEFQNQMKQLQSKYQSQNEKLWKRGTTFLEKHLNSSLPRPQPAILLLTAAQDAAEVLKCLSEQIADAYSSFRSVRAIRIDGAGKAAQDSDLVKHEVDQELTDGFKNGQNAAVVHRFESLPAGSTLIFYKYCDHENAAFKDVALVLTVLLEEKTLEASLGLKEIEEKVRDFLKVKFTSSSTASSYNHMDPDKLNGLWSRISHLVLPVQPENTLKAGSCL

[7] = target: AEA-DA lipid probe targets in Neuro2a cells (Mus musculus, UniProt Q9JKC6)
AEA-DA lipid probe targets in Neuro2a cells (Mus musculus, UniProt Q9JKC6), sequence (Q9JKC6 whole entry): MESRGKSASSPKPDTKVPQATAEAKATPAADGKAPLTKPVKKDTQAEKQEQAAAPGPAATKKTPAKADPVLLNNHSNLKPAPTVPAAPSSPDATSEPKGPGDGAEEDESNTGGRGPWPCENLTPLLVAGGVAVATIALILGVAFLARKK

[8] = target: AEA-DA lipid probe targets in Neuro2a cells (Mus musculus, UniProt Q3UV70); settings: protein Pdp1; Neuro2a cells; competitor 25 μM
AEA-DA lipid probe targets in Neuro2a cells (Mus musculus, UniProt Q3UV70), sequence (Q3UV70 72-538): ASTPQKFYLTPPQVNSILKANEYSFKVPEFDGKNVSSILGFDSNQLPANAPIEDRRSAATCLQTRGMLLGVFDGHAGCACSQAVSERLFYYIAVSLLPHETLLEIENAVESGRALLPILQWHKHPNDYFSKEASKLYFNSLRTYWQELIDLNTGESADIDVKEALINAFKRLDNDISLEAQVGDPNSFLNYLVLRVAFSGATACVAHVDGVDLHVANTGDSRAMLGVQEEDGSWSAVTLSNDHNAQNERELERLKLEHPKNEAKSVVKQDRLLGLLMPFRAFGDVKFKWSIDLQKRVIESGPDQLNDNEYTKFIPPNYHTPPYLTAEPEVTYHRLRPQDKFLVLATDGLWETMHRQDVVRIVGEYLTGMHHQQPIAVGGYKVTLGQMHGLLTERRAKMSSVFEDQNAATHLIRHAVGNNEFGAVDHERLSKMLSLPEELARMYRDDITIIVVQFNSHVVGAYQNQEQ

[9] = target: AEA-DA lipid probe targets in Neuro2a cells (Mus musculus, UniProt Q78IK4); settings: protein Apool; Neuro2a cells; competitor 25 μM
AEA-DA lipid probe targets in Neuro2a cells (Mus musculus, UniProt Q78IK4), sequence (Q78IK4 28-265): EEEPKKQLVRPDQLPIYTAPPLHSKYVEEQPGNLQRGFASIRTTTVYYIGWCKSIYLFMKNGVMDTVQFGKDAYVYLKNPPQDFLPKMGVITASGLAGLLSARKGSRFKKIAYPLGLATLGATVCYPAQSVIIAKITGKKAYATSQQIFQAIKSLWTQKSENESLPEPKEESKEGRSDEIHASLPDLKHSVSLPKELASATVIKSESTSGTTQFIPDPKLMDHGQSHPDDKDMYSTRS

[10] = target: AEA-DA lipid probe targets in Neuro2a cells (Mus musculus, UniProt Q8VCL2); settings: competitor 25 μM
AEA-DA lipid probe targets in Neuro2a cells (Mus musculus, UniProt Q8VCL2), sequence (Q8VCL2 42-255): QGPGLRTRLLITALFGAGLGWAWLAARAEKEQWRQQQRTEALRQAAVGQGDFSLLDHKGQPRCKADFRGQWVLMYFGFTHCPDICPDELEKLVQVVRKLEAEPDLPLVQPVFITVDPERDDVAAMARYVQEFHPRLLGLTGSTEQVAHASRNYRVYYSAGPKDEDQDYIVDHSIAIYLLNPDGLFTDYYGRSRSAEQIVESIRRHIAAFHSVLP

[11] = target: AEA-DA lipid probe targets in Neuro2a cells (Mus musculus, UniProt Q99KI3); settings: competitor 25 μM
AEA-DA lipid probe targets in Neuro2a cells (Mus musculus, UniProt Q99KI3), sequence (Q99KI3 whole entry): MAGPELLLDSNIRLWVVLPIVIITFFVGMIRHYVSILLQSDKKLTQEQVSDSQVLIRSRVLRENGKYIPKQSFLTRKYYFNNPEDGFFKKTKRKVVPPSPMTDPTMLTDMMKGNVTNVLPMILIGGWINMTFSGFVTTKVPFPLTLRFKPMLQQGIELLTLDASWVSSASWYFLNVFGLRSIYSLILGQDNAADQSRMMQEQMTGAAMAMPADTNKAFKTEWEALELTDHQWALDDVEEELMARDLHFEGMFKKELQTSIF

[12] = target: T4, AEA-DA lipid probe targets in Neuro2a cells (Mus musculus, UniProt Q8VCX5); settings: protein Micu1, Neuro2a cells
T4 sequence (Q8VCX5 34-477): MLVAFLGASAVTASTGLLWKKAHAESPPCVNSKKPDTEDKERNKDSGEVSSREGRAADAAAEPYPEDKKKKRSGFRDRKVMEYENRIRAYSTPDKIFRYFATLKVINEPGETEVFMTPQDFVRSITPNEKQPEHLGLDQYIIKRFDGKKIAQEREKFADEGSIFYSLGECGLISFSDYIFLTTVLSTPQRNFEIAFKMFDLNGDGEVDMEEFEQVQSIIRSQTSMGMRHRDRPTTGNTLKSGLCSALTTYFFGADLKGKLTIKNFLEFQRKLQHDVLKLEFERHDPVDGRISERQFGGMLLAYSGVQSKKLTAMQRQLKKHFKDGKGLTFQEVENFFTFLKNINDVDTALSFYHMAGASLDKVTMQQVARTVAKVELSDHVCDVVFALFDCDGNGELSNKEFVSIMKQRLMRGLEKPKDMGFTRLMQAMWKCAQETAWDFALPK

AEA-DA lipid probe targets in Neuro2a cells (Mus musculus, UniProt O88545), sequence (O88545 whole entry): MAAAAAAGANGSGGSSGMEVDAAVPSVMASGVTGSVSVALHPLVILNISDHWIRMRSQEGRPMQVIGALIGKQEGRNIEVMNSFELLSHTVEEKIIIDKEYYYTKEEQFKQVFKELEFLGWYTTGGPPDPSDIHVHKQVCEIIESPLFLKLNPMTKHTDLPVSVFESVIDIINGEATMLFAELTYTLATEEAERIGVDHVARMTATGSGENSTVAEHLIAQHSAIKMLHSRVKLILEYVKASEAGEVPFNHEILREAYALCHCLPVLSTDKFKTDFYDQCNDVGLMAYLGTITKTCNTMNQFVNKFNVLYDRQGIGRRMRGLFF

CCCCC/C=C\C/C=C\C/C=C\C/C=C\CCCC(=O)NCCO [AEA, anandamide, reference compound]
SILAC ratio Cops6 ([1]; competitor 200 μM): 1.4 | SILAC ratio H2-K1 ([2]; competitor 200 μM): 1.2 | SILAC ratio (AEA-DA competition) ([3]; competitor 200 μM): 1.0 | SILAC ratio Slc25a16 ([4]; competitor 200 μM): 1.5 | SILAC ratio (AEA-DA competition) ([5]; competitor 200 μM): 1.0 | SILAC ratio Tor1aip1 ([6]; competitor 200 μM): 1.5 | SILAC ratio Cend1 ([7]; competitor 200 μM): 1.7

O=C(/C=C/c1cccnc1)NCCCCC1CCN(C(=O)c2ccccc2)CC1 [FK-866, reference compound]
SILAC ratio (AEA-DA competition) [8]: 0.9

CN1CCN(C(=O)c2c(-c3ccccc3)c3cc([N+](=O)[O-])ccc3n2C)CC1 [KML110, (1-Methyl-5-nitro-3-phenyl-1H-indol-2-yl)(4-methylpiperazin-1-yl)methanone]
SILAC ratio (AEA-DA competition) [9]: 1.0 | SILAC ratio (AEA-DA competition) ([3]; competitor 25 μM): 1.9 | SILAC ratio Sco2 [10]: 1.5 | SILAC ratio Emc3 [11]: 1.0 | SILAC ratio Cend1 ([7]; competitor 25 μM): 0.9

CN1CCN(C(=O)c2[nH]c3ccc([N+](=O)[O-])cc3c2-c2ccccc2)CC1 [MJN228, (4-Methylpiperazin-1-yl)(5-nitro-3-phenyl-1H-indol-2-yl)methanone]
SILAC ratio Cops6 ([1]; competitor 100 μM): 1.2 | SILAC ratio H2-K1 ([2]; competitor 10 μM): 1.0 | SILAC ratio H2-K1 ([2]; competitor 50 μM): 0.9 | SILAC ratio H2-K1 ([2]; competitor 100 μM): 1.0 | SILAC ratio (AEA-DA competition) [8]: 1.4 | SILAC ratio Slc25a16 ([4]; competitor 10 μM): 1.2 | SILAC ratio Slc25a16 ([4]; competitor 25 μM): 1.1 | SILAC ratio (AEA-DA competition) ([12]; competitor 10 μM): 1.2 | SILAC ratio (AEA-DA competition) ([12]; competitor 25 μM): 1.5 | SILAC ratio (AEA-DA competition) ([5]; competitor 10 μM): 1.1 | SILAC ratio (AEA-DA competition) ([5]; competitor 25 μM): 1.2 | SILAC ratio (AEA-DA competition) ([5]; competitor 100 μM): 1.3 | SILAC ratio Tor1aip1 ([6]; competitor 10 μM): 1.3 | SILAC ratio Tor1aip1 ([6]; competitor 25 μM): 1.3 | SILAC ratio Tor1aip1 ([6]; competitor 50 μM): 1.3 | SILAC ratio Tor1aip1 ([6]; competitor 100 μM): 2.0

C=CCN(C)CCCCCCOc1ccc(C(=O)c2ccc(Br)cc2)c(F)c1 [Ro 48-8071, reference compound]
SILAC ratio (AEA-DA competition) [9]: 0.9 | SILAC ratio Sco2 [10]: 1.0 | SILAC ratio (AEA-DA competition) ([12]; competitor 25 μM): 0.9 | SILAC ratio Emc3 [11]: 1.5

From patent US10168342B2, “Lipid probes and uses thereof” (THE SCRIPPS RESEARCH INSTITUTE, priority 2015, dated 2019)
